Source: PMC11902257, “Antiprotozoal Aminosteroids from Pachysandra terminalis” (Molecules, 2025)
Where “and” joins values, the source holds several entries; their conditions need not be identical. Equal values may be shown once. Read-outs that look alike come from different tables or passages of the source.

Tests used:
Format in all cases: cell-based
[1] = tested on: Plasmodium falciparum (Pf) NF54 strain; experiment: in vitro antiplasmodial assay, 3H-hypoxanthine incorporation, erythrocytic stages; details: for IC50: Plasmodium falciparum, read-out: IC50 Pf (converted); for SI (Pf): Selectivity index IC50(Cytotox)/IC50(Pf), pure compounds
Experimental: Plasmodium falciparum (Pf): Tests were performed against erythrocytic stages of the drug-sensitive NF54 strain. The NF54 strain was obtained from F. Hoffmann-La Roche Limited (Basel, Switzerland). The strain NF54 was originally derived from a patient living near Schiphol Airport, Amsterdam, who had never left the Netherlands. The assay was performed using a 3H-hypoxanthine incorporation assay. Serial compound dilutions were prepared with the medium as indicated above and then added in 96-well plates to parasite cultures incubated in the medium previously described, consisting of RPMI 1640 supplemented with 0.5% ALBUMAX® II, 25 mM Hepes, 25 mM NaHCO3 (pH 7.3), 0.36 mM hypoxanthine, and 100 μg/mL neomycin. The plates were incubated in a humidified atmosphere at 37 °C, 4% CO2, 3% O2, and 93% N2. After 48 h, 0.25 μCi of 3H-hypoxanthine was added to each well. Incubation was continued under identical conditions for a further 24 h. The plates were then harvested using a Betaplate™ cell harvester (Wallac, Zurich, Switzerland). The red blood cells were transferred onto a glass fiber filter and washed with distilled H2O. After drying, filters were inserted into a plastic foil with 10 mL of scintillation fluid and counted with a Betaplate™ liquid scintillation counter (Wallac, Zurich, Switzerland). Data were treated according to [44] (see below). The positive control was chloroquine.
(§1) Bioassay data and statistical methods: In all cases, the readout data were plotted in Microsoft Excel. Half-maximal inhibitory concentrations (IC50 values) were calculated from the sigmoidal dose-response curves by linear regression. Two independent replicates of the assay were performed in all cases, and the results were expressed as arithmetic mean ± deviation from the mean.

[2] = tested on: Trypanosoma brucei rhodesiense (Tbr) STIB900 strain; experiment: in vitro antitrypanosomal assay, bloodstream forms, resazurin; details: for SI(Tbr): Selectivity index IC50(Cytotox)/IC50(Tbr); for IC50: Trypanosoma brucei, read-out: IC50 Tbr (converted)
Experimental: Trypanosoma brucei rhodesiense (Tbr): The STIB900 strain is a derivative of the STIB704 strain isolated from a patient in Ifakara, Tanzania, in 1982 [43]. The bloodstream forms were cultivated as axenic culture in HMI-9 medium, supplemented with 15% heat-inactivated horse serum. Cultures were maintained at 37 °C in an atmosphere of 5% CO2. Test compounds were dissolved in DMSO (10 mg/mL), and serial drug dilutions of eleven 3-fold dilution steps covering a range from 100 to 0.002 μg/mL were prepared in a 96-well plate. Bloodstream-form of T. b rhodesiense strain STIB900 (2 × 10^3/well) was added into the wells. After 68 h incubation, 10 μL of resazurin solution (12.5 mg resazurin in 100 mL 1xPBS) was added per well, and plates were incubated for an additional 4 h. Subsequently, the plates were read with a Spectramax Gemini EM microplate fluorometer (Molecular Devices, San Jose, CA, USA) using an excitation wavelength of 536 nm and an emission wavelength of 588 nm. Data were treated according to [44] (see below). Melarsoprol was used as a positive control.
as §1

[3] = cytotoxicity against L-6 rat skeletal myoblasts, resazurin
Experimental: Cytotoxicity against L-6 rat skeletal myoblasts: The L6 rat skeletal myoblast cell line used for cytotoxicity tests was obtained from the American Type Culture Collection (ATCC, Manassas, VA, USA) as ATCC-CRL-1458 [50]. The cells were cultivated in RPMI 1640 medium supplemented with 1% L-glutamine (200mM) and 10% fetal bovine serum. Cultures were maintained at 37 °C in an atmosphere of 5% CO2. Assays were performed in 96-well plates, each well containing RPMI 1640 medium supplemented with 1% L-glutamine (200 mM), 10% fetal bovine serum, and 2 × 10^3 L-6 cells/well. Plates were incubated at 37 °C under a 5% CO2 atmosphere for 24 h. Compounds were dissolved in DMSO (10 mg/mL). After 24 h, serial drug dilutions of eleven 3-fold dilution steps covering a range from 100 to 0.002 μg/mL were prepared, and the plates were incubated at 37 °C under 5% CO2 for 70 h. After 70 h incubation, 10 μL of resazurin solution (12.5 mg resazurin in 100 mL 1xPBS) was added per well, and plates were incubated for an additional 2 h. After that, the plates were read with a Spectramax Gemini EM microplate fluorometer (Molecular Devices, San Jose, CA, USA) using an excitation wavelength of 536 nm and an emission wavelength of 588 nm. Data were treated according to [44] (see below). Podophyllotoxin served as a positive control.
as §1

[4] = NF54, pure compounds, tested as mono- or bis-trifluoroacetates where marked
[5] = NF54, values in brackets, calculated with the molecular masses of the corresponding salts
[6] = pure compounds, tested as mono- or bis-trifluoroacetates where marked
[7] = values in brackets, calculated with the molecular masses of the corresponding salts

Compound | IC50 [1, 4] [µg/mL] | IC50 [1, 5] [µM] | SI (Pf) [1] | SI(Tbr) ([2]; pure compounds) | IC50 [2, 6] [µg/mL] | IC50 [2, 7] [µM] | IC50 at 70 h [3]
CC(C)=CC(=O)N[C@@H]1[C@H](O)[C@@H]2CC[C@@H]3[C@H](CC[C@]4(C)[C@@H]([C@H](C)N(C)C)CC[C@@H]34)[C@@]2(C)C[C@@H]1O [Compound 16, 4β-Hydroxy-hookerianamide N] | 6.1 ± 0.5 | 10.6 | 7 | 6 | 8.1 ± 0.6 | 14.1 | 45 µg/mL and 79 µM
CN[C@@H]1CC[C@]2(C)[C@H]3CC[C@]4(C)[C@@H]([C@H](C)N(C)C)CC[C@H]4[C@@H]3CC[C@@]2(O)[C@@H]1OC(=O)c1ccccc1 [Compound 17, 5α-Hydroxy-3α,4α-diapachysanaximine A] | 1.6 ± 0.4 | 2.3 | 7 | 3 | 3 ± 2 | 5 | 12 µg/mL and 16 µM
C[C@@H]([C@H]1CC[C@H]2[C@@H]3CC[C@H]4[C@@H](O)[C@@H](NC(=O)c5ccccc5)[C@@H](O)C[C@]4(C)[C@H]3CC[C@]12C)N(C)C [Compound 18, 2β,3β,4β-Diapachysamine K] | 47 ± 7 | 80 | 0.4 | 3 | 5.9 ± 0.4 | 9.9 | 17 µg/mL and 28 µM
